Test results as given in patent publication US6303641A, “Cyanoamidines as cell proliferation inhibitors” (Leo Pharmaceuticals Products Ltd., priority 1997, dated 2001).

Key:
[1] = tested on: human small cell lung carcinoma (NYH); test: Inhibition of tumour cell proliferation in vitro ([3H]thymidine incorporation), NYH; format: cell-based; details: 24 hours, read-out: The median inhibition concentration (IC50, nM) of NYH
Protocol: (§1) The inhibition of tumour cell proliferation was studied using different types of human cancer cell lines. The cell lines under investigation were small cell lung carcinoma (NYH), and breast cancer (MCF-7) using the following general procedure.
(§2) The cells were cultured in vitro for 24 hours in the presence of the compound under investigation. DNA synthesis was measured by incorporation of [3H]thymidine, and the median inhibitory concentrations (IC50) of the compounds were calculated.

[2] = tested on: human breast cancer (MCF-7); test: Inhibition of tumour cell proliferation in vitro ([3H]thymidine incorporation), MCF-7; format: cell-based; details: MCF7, 24 hours, read-out: The median inhibition concentration (IC50, nM) of MCF-7
Protocol: as §1, §2

Yoshida sarcoma cells = test: Survival of Yoshida tumour-bearing rats (Increased Life Span); format: in vivo, LEW/Mol inbred female rats; details: once daily from day 3
Protocol: The prolongation of survival time of tumour-bearing rats was studied in LEW/Mol inbred female rats inoculated with Yoshida sarcoma cells in a number of 2×10^7 cells. Tumour-bearing rats (6 animals per group) were dosed orally once daily from day 3 after the transfer of tumour cells and until death or until the body-weights had increased by 10% as a consequence of tumour proliferation. The mean survival day of treated versus non-treated rats is used to calculate ILS (Increased Life Span). ILS=((mean treated/mean control)-1)*100%.

| Compound | IC50 [1] | IC50 [2] | Increased life span (ILS) (Yoshida sarcoma cells; 50 mg/kg p.o.) | Increased life span (ILS) (Yoshida sarcoma cells; 10 mg/kg p.o.) | Increased life span (ILS) (Yoshida sarcoma cells; 20 mg/kg p.o.) | Increased life span (ILS) (Yoshida sarcoma cells; 30 mg/kg p.o.) |
| --- | --- | --- | --- | --- | --- | --- |
| N#CN=C(NCCCCCCOc1ccc2c(c1)OCO2)c1cccnc1 [Example no. 3, N^2 -Cyano-N^1-(6-(3,4-methylenedioxyphenoxy)hexyl)-3-pyridinecarboxamidine] | 350 nM | 740 nM |  |  |  |  |
| COc1ccccc1OCCCCCCNC(=NC#N)c1cccnc1 [Example no. 2, N^2 -Cyano-N^1-(6-(2-methoxyphenoxy)hexyl)-3-pyridinecarboxamidine] | 340 nM | 540 nM |  |  |  |  |
| CCCCCCCCNC(=NC#N)c1cccnc1 [Prior art A, N^2 -Cyano-N^1-octyl-3-pyridinecarboxamidine, reference compound] |  | 10000 nM |  |  |  |  |
| N#CNC(=Nc1ccncc1)NCCCCOc1ccccc1 [Prior art B, N-Cyano-N'-(4-phenoxybutyl)-N"-4-pyridylguanidine, reference compound] | 380 nM | 920 nM |  |  |  |  |

The next molecules have a lower IC50 [2] than those just listed; values first:

| IC50 [1] | IC50 [2] | Compound | Increased life span (ILS) (Yoshida sarcoma cells; 50 mg/kg p.o.) | Increased life span (ILS) (Yoshida sarcoma cells; 10 mg/kg p.o.) | Increased life span (ILS) (Yoshida sarcoma cells; 20 mg/kg p.o.) | Increased life span (ILS) (Yoshida sarcoma cells; 30 mg/kg p.o.) |
| --- | --- | --- | --- | --- | --- | --- |
| 39 nM | 350 nM | N#CN=C(NCCCCCCOc1ccc(Cl)cc1)c1cccnc1 [Example no. 1, N^2 -Cyano-N^1-(6(4-chlorophenoxy)hexyl)-3-pyridinecarboxamidine] |  | 60% | 90% | 102% |
| 45 nM | 250 nM | N#CNC(=Nc1ccncc1)NCCCCCOc1ccccc1 [Prior art C, N-Cyano-N'-(5-phenoxypentyl)-N"-4-pyridylguanidine, reference compound] | 35% |  |  |  |
